# Tests used:
# [1] = Metabolic stability in alamethicin treated Beagle dog liver microsomes assessed as half life pretreated for 5 mins followed by NADPH addition and measured up to 45 mins by LC-MS/MS analysis; type: ADME, Canis lupus familiaris, Microsome; details: time < 50 min
# [2] = Metabolic stability in alamethicin treated cynomologus monkey liver microsomes assessed as half life pretreated for 5 mins followed by NADPH addition and measured up to 45 mins by LC-MS/MS analysis; type: ADME, Macaca fascicularis, Microsome; details: cynomolgus monkey, time < 50 min
# [3] = Metabolic stability in alamethicin treated cynomologus monkey liver microsomes assessed as half life pretreated for 5 mins followed by UDPGA addition and measured up to 45 mins by LC-MS/MS analysis; type: ADME, Macaca fascicularis, Microsome; details: cynomolgus monkey, time < 50 min
# [4] = Metabolic stability in alamethicin treated Sprague-Dawley rat liver microsomes assessed as half life pretreated for 5 mins followed by NADPH addition and measured up to 45 mins by LC-MS/MS analysis; type: ADME, Microsome; details: time < 50 min
# [5] = Metabolic stability in alamethicin treated human liver microsomes assessed as half life pretreated for 5 mins followed by NADPH addition and measured up to 45 mins by LC-MS/MS analysis; type: ADME, Microsome; details: time < 50 min
# [6] = Metabolic stability in alamethicin treated CD-1 mouse liver microsomes assessed as half life pretreated for 5 mins followed by UDPGA addition and measured up to 45 mins by LC-MS/MS analysis; type: ADME, Microsome; details: time < 50 min
# [7] = target: Bromodomain-containing protein 4 (Homo sapiens, UniProt O60885); experiment: Inhibition of N-terminal His6-tagged recombinant human BRD4 (44 to 168 residues) expressed in Escherichia coli BL21 (DE3) incubated for 60 mins by TR-FRET assay
# [8] = Metabolic stability in alamethicin treated Sprague-Dawley rat liver microsomes assessed as half life pretreated for 5 mins followed by UDPGA addition and measured up to 45 mins by LC-MS/MS analysis; type: ADME, Microsome; details: time < 50 min
# [9] = Antiproliferative activity against human JJN-3R cells assessed as inhibition of cell proliferation measured after 72 hrs by MTS assay; type: functional, cell-based
# [10] = Metabolic stability in alamethicin treated human liver microsomes assessed as half life pretreated for 5 mins followed by UDPGA addition and measured up to 45 mins by LC-MS/MS analysis; type: ADME, Microsome; details: time < 50 min
# [11] = Inhibition of c-MYC expression in human JJN-3R cells measured after 4 hrs; type: functional, cell-based
# [12] = Metabolic stability in alamethicin treated Beagle dog liver microsomes assessed as half life pretreated for 5 mins followed by UDPGA addition and measured up to 45 mins by LC-MS/MS analysis; type: ADME, Canis lupus familiaris, Microsome; details: Beagle, liver microsomes, time < 50 min
# [13] = Efflux ratio of apparent permeability across […] in human Caco-2 cells after 2 hrs by liquid scintillation counting analysis; type: ADME, cell-based; details: caco-2, 2 h
# [14] = Metabolic stability in alamethicin treated CD-1 mouse liver microsomes assessed as half life pretreated for 5 mins followed by NADPH addition and measured up to 45 mins by LC-MS/MS analysis; type: ADME, Microsome; details: time < 50 min
# [15] = AUC in rat at 5 mg/kg, po; type: ADME, organism-based; parameters: dose 5 mg/kg, route po; details: in vivo
# [16] = Antitumor activity against human BR1077F cells xenografted in mouse assessed as tumor growth inhibition at 3 mg/kg, po QD treated as 5 days on and 2 days off regimen for 2 weeks starting from 26 days post tumor implantation; type: functional; details: 336 h, read-out: TGI
# [17] = Volume of distribution in rat at 5 mg/kg, po or 1 mg/kg, iv; type: ADME, organism-based; details: in vivo
# [18] = Drug metabolism in human hepatocytes assessed as oxidative metabolite formation at 5 uM measured after 1 hr by LC/UV/MS analysis; type: ADME, cell-based, Hepatocyte
# [19] = Half life in cynomologus monkey at 0.1 mg/kg, iv; type: ADME, organism-based, Macaca fascicularis; details: cynomolgus monkey, in vivo
# [20] = Oral bioavailability in dog at 0.3 mg/kg; type: ADME, organism-based, Canis lupus familiaris; details: in vivo
# [21] = Volume of distribution in dog at 0.3 mg/kg, po or 0.1 mg/kg, iv; type: ADME, organism-based, Canis lupus familiaris; details: in vivo
# [22] = Volume of distribution in mouse at 5 mg/kg, po or 1.75 mg/kg, iv; type: ADME, organism-based; details: in vivo
# [23] = AUC in mouse at 5 mg/kg, po; type: ADME, organism-based; parameters: dose 5 mg/kg, route po; details: in vivo
# [24] = Half life in mouse at 1.75 mg/kg, iv; type: ADME, organism-based; details: in vivo
# [25] = Volume of distribution in cynomologus monkey at 0.3 mg/kg, po or 0.1 mg/kg, iv; type: ADME, organism-based, Macaca fascicularis; details: cynomolgus monkey, in vivo
# [26] = Oral bioavailability in cynomologus monkey at 0.3 mg/kg; type: ADME, organism-based, Macaca fascicularis; details: cynomolgus monkey, in vivo
# [27] = AUC in mouse xenografted with human BR1077F cells at 3 mg/kg, po QD treated as 5 days on and 2 days off regimen for 2 weeks starting from 26 days post tumor implantation; type: ADME, organism-based; parameters: time 2 weeks, dose 3 mg/kg, route po; details: in vivo
# [28] = AUC in cynomologus monkey at 0.3 mg/kg, po; type: ADME, organism-based, Macaca fascicularis; parameters: dose 0.3 mg/kg, route po; details: cynomolgus monkey, in vivo
# [29] = AUC in dog at 0.3 mg/kg, po; type: ADME, organism-based, Canis lupus familiaris; parameters: dose 0.3 mg/kg, route po; details: in vivo
# [30] = Drug metabolism in human hepatocytes assessed as glucuronidation of the compound at 5 uM measured after 1 hr by LC/UV/MS analysis; type: ADME, cell-based, Hepatocyte
half-life [1] [min],half-life [2] [min],half-life [3] [min],half-life [4] [min],half-life [5] [min],half-life [6] [min],IC50 [7] [nM],half-life [8] [min],half-life [10] [min],IC50 [11] [nM],half-life [12] [min],Ratio [13],half-life [14] [min],SMILES,IC50 [9] [nM],also measured
69,29,120,38,67,120,1,6,120,1.5,120,1.4,42,[2H]C([2H])([2H])c1nnn(C)c1-c1cnc2c3ccc(C(C)(C)O)c(F)c3n([C@H](c3ccccc3)C3CCOCC3)c2c1,5,
11,12,,44,41,,0.9,,,1.2,,7.3,10,Cc1nnn(C)c1-c1cnc2c3ccc(S(C)(=O)=O)cc3n([C@H](c3ccccc3)C3CCOCC3)c2c1,5,
73,11,120,35,23,120,1,120,98,1,120,> 35,28,[2H]C([2H])([2H])c1nnn(C)c1-c1cnc2c3c(OC)cc(C(C)(C)O)cc3n([C@H](c3ccccc3)C3CCOCC3)c2c1,5,
20,10,120,36,33,120,,61,115,0.7,120,2.6,24,Cc1nnn(C)c1-c1cnc2c3ccc(C(C)(C)O)cc3n([C@H](c3ccccc3)C3CCOCC3)c2c1 [EZOBRESIB],3.6,AUC [15]: 2 µM·h; inhibition in vivo at 3 mg/kg [16]: 99%; Vd [17]: 4.3 L/kg; Drug metabolism [18]: Metabolite_Detected; half-life [19]: 120 min; bioavailability [20]: 59%; Vd [21]: 5.3 L/kg; Vd [22]: 1.9 L/kg; AUC [23]: 18 µM·h; half-life [24]: 114 min; Vd [25]: 4.2 L/kg; bioavailability [26]: 16%; AUC at 336 h [27]: 2.6 µM·h; AUC [28]: 0.085 µM·h; AUC [29]: 0.41 µM·h; Drug metabolism [30]: Metabolite_Detected
,,,,,,4,,,9,,,,Cc1nnn(C)c1-c1cnc2c3ccc(C(C)C)cc3n([C@H](c3ccccc3)C3CCOCC3)c2c1,39,
34,40,,47,75,,1.7,,,2,,4.5,22,[2H]C([2H])([2H])c1nnn(C)c1-c1cnc2c3ccc(S(C)(=O)=O)cc3n([C@H](c3ccccc3)C3CCOCC3)c2c1,13,
42,49,120,49,40,120,3,51,120,1.5,120,1.1,58,Cc1nnn(C)c1-c1cnc2c3ccc(C(C)(O)C(F)(F)F)c(F)c3n([C@H](c3ccccc3)C3CCOCC3)c2c1 (some centres not stated),9,
